Experimental data from patent US7915448B2, “Substituted sulfonylaminoarylmethyl cyclopropanecarboxamide as VR1 receptor antagonists” (Pfizer Inc., priority 2005, dated 2011).

Columns and labels:
human VR1 receptors = biological target: T1, human VR1 receptors (Homo sapiens, UniProt Q8NER1); test: Human VR1 antagonist assay (Ca2+ imaging); format: cell-based; conditions: cells expressing human VR1, fura-2 Ca2+ imaging, FDSS 6000; capsaicin (300 nM) or acid (pH5.8) stimulation, table does not say which
T1 construct: host or cells: cells highly expressing human VR1; cell type not specified
Text: Human VR1 Antagonist Assay
VR1 antagonistic activity can be determined by the Ca^2+ imaging assay using human VR1 highly expressing cells. The cells that highly express human VR1 receptors are obtainable from several different conventional methods. The one standard method is cloning from human Dorsal Root Ganglion (DRG) or kidney according to the methods such as described in the journal article; Nature, 389, pp 816-824, 1997. Alternatively VR1 receptors highly expressing human keratinocytes are also known and published in the journal article (Biochemical and Biophysical Research Communications, 291, pp 124-129, 2002). […] Further more, the method to up regulate human VR1 gene, which is usually a silent gene or don't produce detectable level of VR1 receptors, is also available to obtain propriety cells. Such genetic modification method was described in detail; Nat. Biotechnol., 19, pp 440-445, 2001.
The cells that express human VR1 receptors were maintained in culture flask at 37° C. in an environment containing 5% CO2 until use in the assay. The intracellular Ca^2+ imaging assay to determine VR1 antagonistic activities were done by following procedures.
The culture medium was removed from the flask and fura-2/AM fluorescent calcium indicator was added to the flask at a concentration of 5 μM in the medium. The flask was placed in CO2 incubator and incubated for 1 hour. Then the cells expressing the human VR1 receptors were detached from the flask follow by washing with phosphate buffer saline, PBS(−) and re-suspended in assay buffer. The 80 μl of aliquot of cell suspension (3.75×10^5 cells/ml) was added to the assay plate and the cells were spun down by centrifuge (950 rpm, 20° C., 3 minutes).
Capsaicin Stimulation Assay:
The capsaicin-induced changes in the intracellular calcium concentration were monitored using FDSS 6000 (Hamamatsu Photonics, Japan), a fluorometric imaging system. The cell suspension in Krebs-Ringer HEPES (KRH) buffer (115 mM NaCl, 5.4 mM KCl, 1 mM MgSO4, 1.8 mM CaCl2, 11 mM D-Glucose, 25 mM HEPES, 0.96 mM Na2HPO4, pH 7.3) were pre-incubated with varying concentrations of the test compounds or KRH buffer (buffer control) for 15 minutes at room temperature under the dark condition. Then capsaicin solution, which gives 300 nM in assay mixture, was automatically added to the assay plate by the FDSS 6000.
The Acid-induced changes in the intracellular calcium concentration were monitored using FDSS 6000 (Hamamatsu Photonics, Japan), a fluorometric imaging system. The cell suspension in resting buffer (HBSS supplemented with 10 mM HEPES, pH 7.4) were pre-incubated with varying concentrations of the test compounds or resting buffer (buffer control) for 15 minutes at room temperature under the dark condition. The cells were automatically added the stimulating solution (HBSS supplemented with MES, final assay buffer pH5.8) by the FDSS 6000.
Determination of Antagonist Activity
The monitoring of the changes in the fluorescence signals (λex=340 nm/380 nm, λem=510-520 nm) was initiated at 1 minute prior to the addition of capsaicin solution or acidic buffer and continued for 5 minute.

[1] = Half-life in Human Liver Microsomes (HLM); conditions: pH 7.4; for half-life at 1 μM: human, human liver microsomes (HL101)
Protocol: Test compounds (1 μM) were incubated with 3.3 mM MgCl2 and 0.78 mg/mL HLM (HL101) in 100 mM potassium phosphate buffer (pH 7.4) at 37° C. on the 96-deep well plate. The reaction mixture was split into two groups, a non-P450 and a P450 group. NADPH was only added to the reaction mixture of the P450 group. An aliquot of samples of P450 group was collected at 0, 10, 30, and 60 min time point, where 0 min time point indicated the time when NADPH was added into the reaction mixture of P450 group. An aliquot of samples of non-P450 group was collected at −10 and 65 min time point. Collected aliquots were extracted with acetonitrile solution containing an internal standard. The precipitated protein was spun down in centrifuge (2000 rpm, 15 min). The compound concentration in supernatant was measured by LC/MS/MS system.
The half-life value was obtained by plotting the natural logarithm of the peak area ratio of compounds/internal standard versus time. The slope of the line of best fit through the points yields the rate of metabolism (k).

T1 sequence (Q8NER1 whole entry): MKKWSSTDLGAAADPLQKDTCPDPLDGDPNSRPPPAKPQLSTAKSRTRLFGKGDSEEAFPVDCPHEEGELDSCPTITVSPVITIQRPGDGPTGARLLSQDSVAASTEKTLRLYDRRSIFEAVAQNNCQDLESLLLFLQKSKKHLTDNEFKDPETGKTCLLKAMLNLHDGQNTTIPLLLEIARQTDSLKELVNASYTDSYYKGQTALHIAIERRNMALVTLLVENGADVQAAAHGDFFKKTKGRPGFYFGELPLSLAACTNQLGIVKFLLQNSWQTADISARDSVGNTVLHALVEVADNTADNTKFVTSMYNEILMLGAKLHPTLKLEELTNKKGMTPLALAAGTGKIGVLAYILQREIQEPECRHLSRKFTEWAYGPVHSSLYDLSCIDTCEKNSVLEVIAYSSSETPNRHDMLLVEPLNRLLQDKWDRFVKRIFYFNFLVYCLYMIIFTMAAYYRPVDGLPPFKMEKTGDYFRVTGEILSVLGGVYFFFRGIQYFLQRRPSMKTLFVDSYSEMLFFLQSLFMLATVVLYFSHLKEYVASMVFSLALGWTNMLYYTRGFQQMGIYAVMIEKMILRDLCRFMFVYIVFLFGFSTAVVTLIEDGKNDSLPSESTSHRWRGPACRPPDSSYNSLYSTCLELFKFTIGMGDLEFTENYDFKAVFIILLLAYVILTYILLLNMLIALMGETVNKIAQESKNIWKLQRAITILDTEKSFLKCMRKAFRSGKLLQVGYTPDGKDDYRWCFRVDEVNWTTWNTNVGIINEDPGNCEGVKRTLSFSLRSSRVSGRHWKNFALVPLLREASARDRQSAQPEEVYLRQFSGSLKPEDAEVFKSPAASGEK

Compound | IC50 (human VR1 receptors) | half-life at 1 μM [1] | T1/2 ([1]; 1 μM compound, 0.78 mg/mL HLM, 37° C., NADPH)
Cc1cc([C@@H](C)NC(=O)[C@H]2C[C@@H]2c2ccc(C(F)(F)F)nc2N2CCCC2)ccc1NS(C)(=O)=O [Example 46, N-((1R)-1-{3-Methyl-4-[(methylsulfonyl)amino]phenyl}ethyl)-2-[2-pyrrolidin-1-yl-6-(trifluoromethyl)pyridin-3-yl]cyclopropanecarboxamide] | 12.6 nM | 23 min | 
CCc1cc([C@@H](C)NC(=O)[C@H]2C[C@]2(C)c2ccc(C(F)(F)F)cc2)ccc1NS(C)(=O)=O [Example 32, (1S,2S)-N-((1R)-1-{3-Ethyl-4-[(methylsulfonyl)amino]phenyl}ethyl)-2-methyl-2-[4-(trifluoromethyl)phenyl]cyclopropanecarboxamide] | 0.934 nM | 10.8 min | 
C[C@@H](NC(=O)C1CC1(C)c1ccc(C(F)(F)F)c(F)c1)c1ccc(NS(C)(=O)=O)c(F)c1 (stereo partly drawn) [Example 67, N-((1R)-1-{3-Fluoro-4-[(methylsulfonyl)amino]phenyl}ethyl)-2-[3-fluoro-4-(trifluoromethyl)phenyl]-2-methylcyclopropanecarboxamide] | 5.64 nM | 95 min | 
C[C@@H](NC(=O)C1CC1(C)c1ccc(S(=O)(=O)C(F)(F)F)cc1)c1ccc(NS(C)(=O)=O)c(CO)c1 (stereo partly drawn) [Example 69, N-((1R)-1-{3-(Hydroxymethyl)-4-[(methylsulfonyl)amino]phenyl}ethyl)-2-methyl-2-{4-[(trifluoromethyl)sulfonyl]phenyl}cyclopropanecarboxamide] | 212 nM | 30 min | 
Cc1cc([C@@H](C)NC(=O)[C@H]2C[C@]2(C)c2ccc(C(C)(C)C(F)(F)F)cc2)ncc1NS(C)(=O)=O [Example 37, 2-Methyl-N-((1R)-1-{4-methyl-5-[(methylsulfonyl)amino]pyridin-2-yl}ethyl)-2-[4-(2,2,2-trifluoro-1,1-dimethylethyl)phenyl]cyclopropanecarboxamide] | 197 nM | 41 min | 
Cc1cc([C@@H](C)NC(=O)C2CC2(C)c2ccc(C(F)(F)F)nc2)ccc1NS(C)(=O)=O (single isomer, unassigned) [Example 57] | 30.5 nM | 91 min | 
Cc1cc(CNC(=O)C2CC2c2ccc(C(C)(C)C(F)(F)F)cc2)ccc1NS(C)(=O)=O (centres unmarked) [Example 6, N-{3-Methyl-4-[(methylsulfonyl)amino]benzyl}-2-[4-(2,2,2-trifluoro-1,1-dimethylethyl)phenyl]cyclopropanecarboxamide] | 18.3 nM | 18 min | 
C[C@@H](NC(=O)[C@H]1C[C@@H]1c1cc(F)c(C(C)(C)C)c(F)c1)c1ccc(NS(C)(=O)=O)cc1 [Example 38, 2-[4-tert-Butyl-3,5-difluorophenyl]-N-((1R)-1-{4-[(methylsulfonyl)amino]phenyl}ethyl)cyclopropanecarboxamide] | 70.9 nM | 40 min | 
Cc1cc([C@@H](C)NC(=O)[C@H]2C[C@]2(C)c2ccc(C(F)(F)F)cc2)ccc1NS(C)(=O)=O [Example 15, (1S,2S)-2-Methyl-N-((1R)-1-{3-methyl-4-[(methylsulfonyl)amino]phenyl}ethyl)-2-[4-(trifluoromethyl)phenyl]cyclopropanecarboxamide] | 0.71 nM | 38 min | 
Cc1cc([C@@H](C)NC(=O)C2CC2c2ccc(C(C)(C)C)cc2CO)ccc1NS(C)(=O)=O (stereo partly drawn) [Example 68, 2-[4-tert-Butyl-2-(hydroxymethyl)phenyl]-N-((1R)-1-{3-methyl-4-[(methylsulfonyl)amino]phenyl}ethyl)cyclopropanecarboxamide] | 62 nM | 18 min | 
Cc1nc([C@@H](C)NC(=O)C2CC2(C)c2ccc(C(F)(F)F)cc2)ccc1NS(C)(=O)=O (some centres unmarked) [Example 54] | 234 nM | 96 min | 
CC(C)(C)c1ccc(C2CC2C(=O)NCc2ccc(NS(C)(=O)=O)c(F)c2)cc1 (centres unmarked) [Example 1, 2-(4-tert-Butylphenyl)-N-{3-fluoro-4-[(methylsulfonyl)amino]benzyl}cyclopropanecarboxamide] | 330 nM | 13 min | 
Cc1cc([C@@H](C)NC(=O)C2CC2c2ccc(C(C)(C)C)nc2)ccc1NS(C)(=O)=O (stereo partly drawn) [Example 53, 2-[6-tert-Butylpyridin-3-yl]-N-((1R)-1-{3-methyl-4-[(methylsulfonyl)amino]phenyl}ethyl)cyclopropanecarboxamide] | 125 nM | 44 min | 

More lines, in order of falling IC50 (human VR1 receptors), values ahead:

IC50 (human VR1 receptors) | half-life at 1 μM [1] | T1/2 ([1]; 1 μM compound, 0.78 mg/mL HLM, 37° C., NADPH) | Compound
263 nM | 22 min |  | Cc1cc([C@@H](C)NC(=O)C2CC2(CO)c2ccc(C(C)(C)C)cc2)ccc1NS(C)(=O)=O (stereo partly drawn) [Example 59, 2-[4-tert-Butylphenyl]-2-(hydroxymethyl)-N-((1R)-1-{3-methyl-4-[(methylsulfonyl)amino]phenyl}ethyl)cyclopropanecarboxamide]
171 nM | 42 min |  | Cc1nc([C@@H](C)NC(=O)C2CC2(C)c2ccc(C(C)(C)C(F)(F)F)cc2)ccc1NS(C)(=O)=O (stereo partly drawn) [Example 9, 2-Methyl-N-((1R)-1-{6-methyl-5-[(methylsulfonyl)amino]pyridin-2-yl}ethyl)-2-[4-(2,2,2-trifluoro-1,1-dimethylethyl)phenyl]cyclopropanecarboxamide]
40 nM | 5 min |  | Cc1cc(CNC(=O)C2CC2(C)c2ccc(C(C)(C)C)cc2)ccc1NS(C)(=O)=O (centres unmarked) [Example 5, 2-(4-tert-Butylphenyl)-2-methyl-N-{3-methyl-4-[(methylsulfonyl)amino]benzyl}cyclopropanecarboxamide]
8.5 nM | 52.6 min |  | CCc1cc([C@@H](C)NC(=O)C2CC2(C)c2cc(F)c(C(C)(C)C(F)(F)F)c(F)c2)ccc1NS(C)(=O)=O (single isomer, unassigned) [Example 72]
7.83 nM | 25 min |  | Cc1cc([C@@H](C)NC(=O)C2CC2(C)c2ccc(C(C)(C)C(F)(F)F)cc2)ccc1NS(C)(=O)=O (some centres unmarked) [Example 27]
6.66 nM | 35.6 min |  | COC1(c2ccc(C(F)(F)F)cc2)CC1C(=O)N[C@H](C)c1ccc(NS(C)(=O)=O)c(C)c1 (stereo partly drawn) [Example 63, N-((1R)-1-{3-Methyl-4-[(methylsulfonyl)amino]phenyl}ethyl)-2-(methyloxy)-2-[4-(trifluoromethyl)phenyl]cyclopropanecarboxamide]
6.59 nM | 53 min |  | Cc1cc([C@@H](C)NC(=O)C2CC2(C)c2ccc(OC(F)(F)F)cc2)ccc1NS(C)(=O)=O (stereo partly drawn) [Example 16, 2-Methyl-N-((1R)-1-{3-methyl-4-[(methylsulfonyl)amino]phenyl}ethyl)-2-[4-(trifluoromethoxy)phenyl]cyclopropanecarboxamide]
4.72 nM | > 120 min |  | CC[C@@H](NC(=O)[C@H]1C[C@]1(C)c1ccc(C(F)(F)F)cc1)c1ccc(NS(C)(=O)=O)c(C)c1 [Example 34, (1S,2S)-2-Methyl-N-((1R)-1-{3-methyl-4-[(methylsulfonyl)amino]phenyl}propyl)-2-[4-(trifluoromethyl)phenyl]cyclopropanecarboxamide]
0.83 nM |  | 38 min | Cc1cc([C@@H](C)NC(=O)[C@H]2C[C@]2(C)c2ccc(C(F)(F)F)cc2)ccc1NS(C)(=O)=O [Example 70, (1S,2S)-2-Methyl-N-((1R)-1-{3-methyl-4-[(methylsulfonyl)amino]phenyl}ethyl)-2-[4-(trifluoromethyl)phenyl]cyclopropanecarboxamide]
